# Data reported in patent US11913884B2, “Visible light-activated dyes and methods of use thereof” (William Marsh Rice University, priority 2019, dated 2024).
# “And” between values parts separate entries of the source, which are not always exact repeats. Equal values may be shown once. Where a name gives a salt, the structure may show the parent alone. Read-outs that look alike come from different tables or passages of the source.
# How the values were obtained:
# [1] = cited from earlier work
# [2] = tested on: H2B-Halo expressed CHO-K1 cells; assay: Turn-on of 5NP-Halo in cells; format: cell-based; details: 10 μM for 1 h
# Description: FIGS. 19A & 19B show turn-on of 5NP-Halo in H2B-Halo expressed CHO-K1 cells.
# [3] = Fluorescence quantum yield determination; format: physicochemical; details: DMSO; reference rhodamine B in ethanol or quinine sulfate in 0.5 M H2SO4
# Method: (§1) The ^1H NMR spectroscopic measurements were carried out using a Bruker-600 NMR at 600 MHz with tetramethysilane (TMS) as internal reference. Electrospray ionization (ESI) mass spectra were performed on a Bruker MicroToF ESI LC-MS System in positive-ion mode. The steady-state absorption spectra were obtained with a ThermoFisher Evolution 220 UV-Vis spectrophotometer in 1 cm path length quartz cells. Fluorescence spectra were recorded using spectrophotometer (SPEX FluoroLog-3). Quantum yield in DMSO was measured relative to the fluorescence of Rhodamine B (Φ=0.65) in ethanol or quinine sulfate (Φ=0.55) in 0.5 M·L^−1 H2SO4. FT-IR spectrum was taken on a PerkinElmer Spectrum 100 FT-IR Spectrometers. Confocal fluorescent images of living cells were performed using Nikon A1R-si Laser Scanning Confocal Microscope (Japan), equipped with lasers of 405/488/561/638 nm. STORM images were performed on a NSTORM (Nikon, Japan), featuring a CFI Apo TIRF 100× oil objective (NA 1.49) on an inverted Nikon Ti Eclipse microscope with a quad cube filter (Chroma, zt405/488/561/640 m-TRF), piezo stage, and Perfect Focus System (Nikon) for Z-stability. Light source are hand-held UV lamp, BlueView Transilluminator (470 nm centred, Vernier), Prior Lumen200 with 615/30 filter and 850 LED (Mouser Electronics).
# Quantum yields were measured with Rhodamine B as reference (Φ=0.65) or quinine sulfate (Φ=0.55) in 0.5 M H2SO4. Fluorescence measurements were performed in 1 cm quartz cells with 5 μM samples in DMSO on spectrophotometer (SPEX FluoroLog-3) (slits 5×5). The fluorescence quantum yield, Φ (sample), were calculated according to equation as following:
# [formula] Φ: quantum yield; I: integrated emission intensity; OD: optical density at the excitation wavelength; d: refractive index of solvents, dDMSO=1.478; dethanol=1.36; dwater=1.33.
# [4] = UV-vis absorption and fluorescence spectra of thio-caged and uncaged fluorophores; format: physicochemical; details: for λem / λabs: DMSO (50 μM); for λabs: absorption maxima
# Method: Encouraged by the excellent photoactivation properties of SNile Red, Lawesson's reagent was employed to introduce thiocarbonyl moieties into several different fluorophores, such as phthalimide (PI), coumarin (Cou) and acridone (ACD), obtaining yields ranging from 20-80% (FIG. 1). Next, characterization of the spectroscopic and photochemical properties of these thiocaged fluorophores and their oxidized products using UV-vis and fluorescence spectroscopies was performed (Table 1). […] Double thiocarbonyl substitution on 4-dimethylaminophthalimide (4-DMAP, FIG. 1) produced an even larger bathochromic shift of 166 nm. […] It was hypothesized that the red-shift and enhanced absorption seen with thiocarbonyl compounds were due to the reduced energy gap between the HOMO-LUMO in these fluorophores. This is consistent with the computational results discussed below. […] To assess the efficiency of photoactivation for the various thio-caged fluorophores, UV-vis and fluorescence spectra were recorded after different irradiation times (FIGS. 4-8).
# as §1
# [5] = Photoactivation (turn-on) of thio-caged fluorophores in solution by light irradiation; format: physicochemical; details: DMSO; footnote d: 615 nm, 0.4 μW cm^−2
# Description: To determine whether a minimal one atom sulfur-for-oxygen substitution within fluorophores can lead to fluorescence quenching, thio-caged Nile Red (SNile Red, FIG. 1) was synthesized, in which a carbonyl group was replaced with a thiocarbonyl moiety. Treatment of Nile Red with Lawesson's reagent in refluxing benzene produced the desired SNile Red in a yield of 40%. […] Irradiation of SNile Red with red light (615 nm, 0.4 μW cm-2) led to the regeneration of fluorescent Nile Red in a high yield (FIG. 2A). The absorption maxima of SNile Red at 298, 368 and 652 nm were blue-shifted after desulfuration to 315 and 556 nm, in a good agreement with the absorption spectrum of authentic synthesized Nile Red (FIG. 2B). The A556/A652 value, representing the ratio of the absorbance maxima of Nile Red and SNile Red, increased from 0.25 to 30 after desulfuration reaction (FIG. 2B). Upon irradiation with red light, the fluorescence intensity of the desulfurated material at 626 nm increased 280-fold, accompanied by a change in fluorescence from dark to red (FIG. 2C). To evaluate the proper light source for SNile Red photoactivation, SNile Red was irradiated with either 470 nm, 615 nm, or 850 nm light for different times and fluorescence intensities at 626 nm were recorded. […] To further characterize the photoactivated product of SNile Red, ^1H NMR and ESI-MS spectral changes were measured in the process of photoactivation (FIG. 2A). […] Signals corresponding to phenyl moiety protons at 8.64, 8.62, 7.85, 7.73, 7.36, 7.04, and 6.79 ppm gradually disappeared, and were replaced by new signals appearing at 8.57, 8.13, 7.81, 7.72, 7.63, 6.85, 6.69 and 6.30 ppm, respectively. […] The photoactivated product was also characterized by ESI-mass spectrometric analysis FIG. 3). The observed m/z 319.2 corresponding to Nile Red confirms the photoactivation product of SNile Red is its oxo form. Both dialkylthioketones and diarylthioketones are known to undergo photo-oxidation reaction under oxygen and light to give the corresponding ketones (Coyle, 1985, Corsaro and Pistara, 1998). To investigate the effects of dissolved oxygen and light on the photoactivation of thio-caged fluorophores, the time profile of the fluorescence of SNile Red was measured in the presence or absence of light, or oxygen. […] To study the effect of oxygen during the photoactivation, the inventors prepared an oxygen-free SNile Red solution by bubbling nitrogen gas and irradiated at 615 nm. […] Inspired by the photoactivation mechanism of thioketones, it was hypothesized that singlet oxygen generated by self-sensitization can be the active species to oxidize thiocarbonyl groups within fluorophores (Coyle, 1985 and Corsaro and Pistara, 1998). […] The singlet oxygen quantum yield (DA) was further determined to be 0.36 with considering the absorption correction factor over the 600-630 nm region (Bonacin et al., 2009 and Adarsh et al., 2010) by referring to methylene blue (MB) (ΦΔ,MB=0.57 in dichloromethane; Li et al., 2013).
# Encouraged by the excellent photoactivation properties of SNile Red, Lawesson's reagent was employed to introduce thiocarbonyl moieties into several different fluorophores, such as phthalimide (PI), coumarin (Cou) and acridone (ACD), obtaining yields ranging from 20-80% (FIG. 1). Next, characterization of the spectroscopic and photochemical properties of these thiocaged fluorophores and their oxidized products using UV-vis and fluorescence spectroscopies was performed (Table 1). […] Double thiocarbonyl substitution on 4-dimethylaminophthalimide (4-DMAP, FIG. 1) produced an even larger bathochromic shift of 166 nm. […] It was hypothesized that the red-shift and enhanced absorption seen with thiocarbonyl compounds were due to the reduced energy gap between the HOMO-LUMO in these fluorophores. This is consistent with the computational results discussed below. […]
# [6] = in dichloromethane; cited from earlier work
SMILES,ø (fluorescence quantum yield) [3],λem [4],λabs [4],other results
C=C[C@H]1C[N@@]2CC[C@H]1C[C@H]2[C@H](O)c1ccnc2ccc(OC)cc12 [quinine sulfate],–,–,–,fluorescence quantum yield Φ of reference ([1]; in 0.5 M H2SO4): 0.55
O=C(CN1C(=S)c2cccc3c(N4CCCC4)ccc(c23)C1=S)NCCOCCOCCCCCCCl [Dye 5NP-Halo],–,–,–,fluorescence upon photoactivation of treated cells [2]: enhanced fluorescence
"O=c1c2ccccc2[nH]c2ccccc12 [ACD, acridone]",0.64,406 nm and 428 nm and 455 nm,361 nm and 379 nm and 398 nm,–
CCN(CC)c1ccc2c(-c3ccccc3C(=O)O)c3ccc(=[N+](CC)CC)cc-3oc2c1.[Cl-] [Rhodamine B],–,–,–,fluorescence quantum yield Φ of reference ([1]; in ethanol): 0.65
CN(C)c1ccc2nc3ccc(=[N+](C)C)cc-3sc2c1 [methylene blue],–,–,–,"singlet oxygen quantum yield (ΦΔ,MB) of reference [6]: 0.57"

# More lines, main results first:
ø (fluorescence quantum yield) [3],λem [4],λabs [4],SMILES,other results
<0.001,294 nm,–,S=C1NC(=S)c2ccccc21 [Dye 2SPI],Turn-on (x-fold) [5]: 30^d x-fold
0.09,505 nm,267 nm and 325 nm and 397 nm,"CN(C)c1ccc2c(c1)C(=O)NC2=O [DMAP, 4-dimethylaminophthalimide]",bathochromic shift of absorption maximum ([4]; double thiocarbonyl substitution versus carbonyl compound): 166 nm
0.001,347 nm,–,"O=C1NC(=O)c2ccccc21 [OPI, phthalimide]",–
0.46,626 nm,–,CCN(CC)c1ccc2nc3c4ccccc4c(=O)cc-3oc2c1 [Nile Red],–
<0.001,409 nm and 427 nm and 463 nm,430 nm and 456 nm,S=c1c2ccccc2[nH]c2ccccc12 [SACD],Turn-on (x-fold) [5]: 180^d x-fold
<0.001,447 nm,326 nm and 390 nm and 563 nm,CN(C)c1ccc2c(c1)C(=S)NC2=S [SDMAP],Turn-on (x-fold) [5]: 1600^d x-fold
0.71,445 nm,–,"O=c1ccc2ccccc2o1 [Cou, coumarin]",–
